# Measurements: PubChem BioAssay (NCI)
#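 Each compound was tested at five concentrations against cells in 96-well plates for 48 hours. TGI: total growth inhibition.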
# Columns and labels:
# Test in all cases: DTP human tumour cell line panel, 48 h
# [1] = tested on: SW-620 colon
# [2] = tested on: MOLT-4 leukemia
# [3] = tested on: SN12C renal
# [4] = tested on: HT29 colon
# [5] = tested on: T-47D breast
# [6] = tested on: ACHN renal
# [7] = tested on: MDA-MB-231 breast
# [8] = tested on: OVCAR-5 ovarian
# [9] = tested on: NCI-H522 lung
# [10] = tested on: UO-31 renal
# [11] = tested on: SF-539 CNS
# [12] = tested on: MDA-N
# [13] = tested on: MCF7 breast
# [14] = tested on: UACC-257 melanoma
# [15] = tested on: MALME-3M melanoma
# [16] = tested on: HOP-62 NSCLC
# [17] = tested on: U251 CNS
# [18] = tested on: SK-OV-3 ovarian
# [19] = tested on: A498 renal
# [20] = tested on: NCI-H23 lung
smiles,measurement,setting,value
Cc1ccc(S(=O)(=O)N2CCC(=O)c3cc(Br)ccc32)cc1,TGI,[1],> 100 µM
same,TGI,[2],> 26.6 µM
same,TGI,[3],> 100 µM
same,TGI,[4],> 100 µM
same,TGI,[5],> 100 µM
same,TGI,[6],> 100 µM
same,TGI,[7],> 54.5 µM
same,TGI,[8],> 100 µM
same,TGI,[9],> 55.6 µM
same,TGI,[10],> 100 µM
same,TGI,[11],25.3 µM
same,TGI,[12],13.3 µM
same,TGI,[13],> 49.1 µM
same,TGI,[14],46.6 µM
same,TGI,[15],> 100 µM
same,TGI,[16],59.7 µM
same,TGI,[17],> 35 µM
same,TGI,[18],63.2 µM
same,TGI,[19],30.1 µM
same,TGI,[20],> 93.9 µM
CC(=O)OC/C=C/[C@H](O[Si](C)(C)C(C)(C)C)[C@@H](O)/C=C/COC(C)=O,TGI,[1],> 100 µM
same,TGI,[2],54.8 µM
same,TGI,[3],> 100 µM
same,TGI,[4],> 100 µM
same,TGI,[5],> 100 µM
same,TGI,[6],> 100 µM
same,TGI,[7],> 100 µM
same,TGI,[8],> 100 µM
same,TGI,[9],> 100 µM
same,TGI,[10],> 100 µM
same,TGI,[11],> 100 µM
same,TGI,[12],> 100 µM
same,TGI,[13],> 100 µM
same,TGI,[14],> 100 µM
same,TGI,[15],> 100 µM
same,TGI,[16],> 100 µM
same,TGI,[17],> 100 µM
same,TGI,[18],> 100 µM
same,TGI,[19],> 100 µM
same,TGI,[20],> 100 µM
CC[C@@]1(O)C(=O)OCc2c1cc1n(c2=O)Cc2c-1nc1ccccc1c2/C=N\NC(=O)C(N)CO (some centres not stated),TGI,[1],> 100 µM
same,TGI,[2],1.58 µM
same,TGI,[3],25.3 µM
same,TGI,[4],> 90.4 µM
same,TGI,[5],> 100 µM
same,TGI,[7],> 100 µM
same,TGI,[8],> 100 µM
same,TGI,[9],> 42.2 µM
same,TGI,[10],11 µM
same,TGI,[11],0.763 µM
same,TGI,[12],> 100 µM
same,TGI,[13],21.3 µM
same,TGI,[14],> 65.8 µM
same,TGI,[15],> 100 µM
same,TGI,[16],9.35 µM
same,TGI,[17],> 20.9 µM
same,TGI,[18],> 100 µM
same,TGI,[19],12.2 µM
same,TGI,[20],5.38 µM
CN1CC[C@]23c4c5ccc(O)c4O[C@H]2C(O)CC[C@@]3(O)[C@H]1C5 (some centres not stated),TGI,[1],> 100 µM
same,TGI,[2],> 100 µM
same,TGI,[3],> 100 µM
same,TGI,[4],> 100 µM
same,TGI,[5],> 100 µM
same,TGI,[6],> 100 µM
same,TGI,[7],> 100 µM
same,TGI,[8],> 100 µM
same,TGI,[9],> 100 µM
same,TGI,[10],> 100 µM
same,TGI,[11],> 100 µM
same,TGI,[12],> 100 µM
same,TGI,[13],> 100 µM
same,TGI,[14],> 100 µM
same,TGI,[15],> 100 µM
same,TGI,[16],> 100 µM
same,TGI,[17],> 100 µM
same,TGI,[18],> 100 µM
same,TGI,[19],> 100 µM
same,TGI,[20],> 100 µM
C[C@]12CC[C@@H]3c4ccc(O)cc4CC[C@H]3[C@@H]1CC[C@@H]2OP(=O)(O)O,TGI,[1],> 100 µM
same,TGI,[2],> 100 µM
same,TGI,[3],> 100 µM
same,TGI,[4],> 100 µM
same,TGI,[5],> 100 µM
same,TGI,[6],> 100 µM
same,TGI,[7],> 100 µM
same,TGI,[8],> 100 µM
same,TGI,[9],> 100 µM
same,TGI,[10],> 100 µM
same,TGI,[11],> 100 µM
same,TGI,[12],> 100 µM
same,TGI,[13],> 100 µM
same,TGI,[14],> 100 µM
same,TGI,[15],> 100 µM
same,TGI,[16],> 100 µM
same,TGI,[17],> 100 µM
same,TGI,[18],> 100 µM
same,TGI,[19],> 100 µM
same,TGI,[20],> 100 µM
OC1c2ccccc2CC12Cc1ccccc1C2 (configuration not stated),TGI,[1],> 100 µM
same,TGI,[2],> 100 µM
same,TGI,[3],> 100 µM
same,TGI,[4],> 100 µM
same,TGI,[5],> 100 µM
same,TGI,[6],> 100 µM
same,TGI,[7],> 100 µM
same,TGI,[8],> 100 µM
same,TGI,[9],> 100 µM
same,TGI,[10],> 100 µM
same,TGI,[11],> 100 µM
same,TGI,[12],> 100 µM
same,TGI,[13],> 100 µM
same,TGI,[14],> 100 µM
same,TGI,[15],> 100 µM
same,TGI,[16],> 100 µM
same,TGI,[17],> 100 µM
same,TGI,[18],> 100 µM
same,TGI,[19],> 100 µM
same,TGI,[20],> 100 µM
COc1ccc([C@H]2CC(=O)C[C@H](c3ccc(OC)cc3)C23C(=O)c2ccccc2C3=O)cc1,TGI,[1],> 100 µM
same,TGI,[2],> 100 µM
same,TGI,[3],> 100 µM
same,TGI,[4],> 100 µM
same,TGI,[5],> 100 µM
same,TGI,[6],> 100 µM
same,TGI,[7],> 100 µM
same,TGI,[8],> 100 µM
same,TGI,[9],18.6 µM
same,TGI,[10],> 100 µM
same,TGI,[11],53.3 µM
same,TGI,[12],5.35 µM
same,TGI,[13],> 100 µM
same,TGI,[14],7.74 µM
same,TGI,[15],> 100 µM
same,TGI,[16],> 100 µM
same,TGI,[17],> 100 µM
same,TGI,[18],> 100 µM
same,TGI,[19],> 100 µM
same,TGI,[20],> 100 µM
Cc1ccc(Cc2n[nH]c(=O)n2Nc2ccccc2)cc1,TGI,[1],> 100 µM
same,TGI,[2],> 100 µM
same,TGI,[3],> 100 µM
same,TGI,[4],> 100 µM
same,TGI,[5],> 100 µM
same,TGI,[6],> 100 µM
same,TGI,[7],> 100 µM
same,TGI,[8],> 100 µM
same,TGI,[9],> 100 µM
same,TGI,[10],> 100 µM
same,TGI,[11],> 100 µM
same,TGI,[12],> 100 µM
same,TGI,[13],> 100 µM
same,TGI,[14],> 100 µM
same,TGI,[15],> 100 µM
same,TGI,[16],> 100 µM
same,TGI,[17],> 100 µM
same,TGI,[18],> 100 µM
same,TGI,[19],> 100 µM
same,TGI,[20],> 100 µM
c1ccc(-c2nnc(-c3ccccn3)c3c2C[C@@H]2C[C@@H]4Cc5c(-c6ccccn6)nnc(-c6ccccn6)c5[C@@H]4[C@H]32)nc1,TGI,[1],> 100 µM
same,TGI,[2],> 100 µM
same,TGI,[3],> 100 µM
same,TGI,[4],> 100 µM
same,TGI,[5],> 100 µM
same,TGI,[6],> 100 µM
same,TGI,[7],> 100 µM
same,TGI,[8],> 100 µM
same,TGI,[9],> 100 µM
same,TGI,[10],> 100 µM
same,TGI,[11],> 100 µM
same,TGI,[12],> 100 µM
same,TGI,[13],> 100 µM
same,TGI,[14],> 100 µM
same,TGI,[15],> 100 µM
same,TGI,[16],> 100 µM
same,TGI,[17],89.1 µM
same,TGI,[18],> 100 µM
same,TGI,[19],6.35 µM
same,TGI,[20],> 100 µM
O=C(NNC(=S)Nc1ccccc1)c1cc(-c2ccccc2)nc2ccccc12,TGI,[1],49.9 µM
same,TGI,[2],32.2 µM
same,TGI,[3],40.6 µM
same,TGI,[4],> 100 µM
same,TGI,[5],50.5 µM
same,TGI,[6],91.9 µM
same,TGI,[7],52.5 µM
same,TGI,[8],36.3 µM
same,TGI,[9],52.6 µM
same,TGI,[10],31 µM
same,TGI,[11],38.7 µM
same,TGI,[12],37.9 µM
same,TGI,[13],60.8 µM
same,TGI,[14],60.1 µM
same,TGI,[15],82.4 µM
same,TGI,[16],33.3 µM
same,TGI,[17],30.8 µM
same,TGI,[18],43.2 µM
same,TGI,[19],28 µM
same,TGI,[20],37.9 µM
CC1CCC2(O)C3(C)CC4(O)OC2(C1O)C1(O)C3(O)C(OC(=O)c2ccc[nH]2)C(O)(C(C)C)C41C (configuration not stated),TGI,[1],> 100 µM
same,TGI,[2],> 100 µM
same,TGI,[3],> 100 µM
same,TGI,[4],> 100 µM
same,TGI,[5],> 100 µM
same,TGI,[6],> 100 µM
same,TGI,[7],> 100 µM
same,TGI,[8],> 100 µM
same,TGI,[9],> 100 µM
same,TGI,[10],> 100 µM
same,TGI,[11],> 100 µM
same,TGI,[12],> 100 µM
same,TGI,[13],> 100 µM
same,TGI,[14],> 100 µM
same,TGI,[15],> 100 µM
same,TGI,[16],> 100 µM
same,TGI,[17],> 100 µM
same,TGI,[18],> 100 µM
same,TGI,[19],> 100 µM
same,TGI,[20],> 100 µM
CCc1cc2c(c3c1CCC3=O)CC1(Cc3ccc(C)cc3C1)C2 (configuration not stated),TGI,[2],68.7 µM
same,TGI,[3],> 100 µM
same,TGI,[4],46.9 µM
same,TGI,[5],> 100 µM
same,TGI,[6],> 100 µM
same,TGI,[7],> 100 µM
same,TGI,[8],> 100 µM
same,TGI,[9],> 100 µM
same,TGI,[11],> 100 µM
same,TGI,[12],> 100 µM
same,TGI,[13],> 100 µM
same,TGI,[14],> 100 µM
same,TGI,[15],> 100 µM
same,TGI,[16],> 100 µM
same,TGI,[17],> 100 µM
same,TGI,[18],> 100 µM
same,TGI,[19],> 100 µM
same,TGI,[20],> 100 µM
